Each block holds one molecule with its values, some of them ahead of it. Non-standard residues stand in square brackets, D forms with d. Residues, ends and D or L forms follow the SMILES beside them. *: point of attachment. Palmitoyl = CCCCCCCCCCCCCCCC(=O)*; Dap = NC[C@H](N)C(=O)O
Key:
[1] = system: T1, Lysosomal acid glucosylceramidase (Homo sapiens), P04062 [N409S]; test: Induction of beta glucosidase N370S mutant activity in lymphoblast derived from Gaucher disease patient at 5 uM after 3 days relative to control
T1 sequence (whole entry): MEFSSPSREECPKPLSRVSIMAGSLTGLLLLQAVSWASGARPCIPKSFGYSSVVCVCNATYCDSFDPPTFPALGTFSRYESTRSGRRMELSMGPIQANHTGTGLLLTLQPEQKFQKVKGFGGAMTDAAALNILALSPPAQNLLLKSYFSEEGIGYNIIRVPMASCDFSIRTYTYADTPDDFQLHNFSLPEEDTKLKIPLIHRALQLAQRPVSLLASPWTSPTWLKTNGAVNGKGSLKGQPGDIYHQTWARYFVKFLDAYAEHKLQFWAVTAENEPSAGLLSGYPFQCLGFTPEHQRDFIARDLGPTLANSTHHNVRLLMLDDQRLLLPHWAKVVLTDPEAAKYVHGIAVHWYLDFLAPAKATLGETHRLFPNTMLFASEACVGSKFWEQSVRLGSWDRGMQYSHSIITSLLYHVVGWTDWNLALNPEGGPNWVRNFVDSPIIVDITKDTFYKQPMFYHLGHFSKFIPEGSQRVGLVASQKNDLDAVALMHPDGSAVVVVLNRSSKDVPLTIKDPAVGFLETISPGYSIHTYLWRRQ

[2] = species: Homo sapiens; test: Induction of beta-hexosaminidase S in fibroblasts derived from ISD patient at 10 uM after 5 days by Western blotting analysis relative to control
[3] = species: Homo sapiens; test: Induction of beta-hexosaminidase S in fibroblasts derived from ISD patient after 5 days by Western blotting analysis relative to control
[4] = system: T1, Lysosomal acid glucosylceramidase (Homo sapiens), P04062 [N409S]; test: Induction of beta glucosidase N370S mutant activity in cells derived from Gaucher disease patient at 20 uM relative to control
[5] = system: T1, Lysosomal acid glucosylceramidase (Homo sapiens), P04062 [N409S]; test: Induction of beta glucosidase N370S mutant activity in primary skin fibroblast derived from Gaucher disease patient at 20 uM after 5 days relative to control
[6] = molecular target: T2, Palmitoyl-protein thioesterase 1 (Homo sapiens, UniProt P50897); test: Inhibition of PPT1 (unknown origin) in cell lysates using fluorescent-based MUGSP as substrate after 1 to 3 hrs
T2 sequence (P50897 whole entry): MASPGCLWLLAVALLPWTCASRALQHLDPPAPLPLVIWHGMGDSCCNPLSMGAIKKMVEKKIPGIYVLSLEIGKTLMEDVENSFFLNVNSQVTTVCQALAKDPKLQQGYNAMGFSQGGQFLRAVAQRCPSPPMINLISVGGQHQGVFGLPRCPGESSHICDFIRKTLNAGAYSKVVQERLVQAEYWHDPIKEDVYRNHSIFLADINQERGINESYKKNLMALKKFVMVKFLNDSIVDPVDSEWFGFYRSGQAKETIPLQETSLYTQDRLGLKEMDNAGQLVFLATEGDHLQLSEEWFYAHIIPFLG

[7] = system: T1, Lysosomal acid glucosylceramidase (Homo sapiens), P04062 [N409S]; test: Induction of beta glucosidase N370S mutant (unknown origin) at 10 nM relative to control
[8] = molecular target: Lysosomal acid glucosylceramidase (Homo sapiens) (UniProt P04062); test: Binding affinity to beta glucosidase (unknown origin) relative to control
[9] = system: T3, Alpha-galactosidase A (Homo sapiens), P06280 [R301Q]; test: Induction of alpha galactosidase A R301Q mutant activity in lymphoblasts derived from Fabry disease patient at 100 uM after 4 days relative to control
T3 sequence (whole entry): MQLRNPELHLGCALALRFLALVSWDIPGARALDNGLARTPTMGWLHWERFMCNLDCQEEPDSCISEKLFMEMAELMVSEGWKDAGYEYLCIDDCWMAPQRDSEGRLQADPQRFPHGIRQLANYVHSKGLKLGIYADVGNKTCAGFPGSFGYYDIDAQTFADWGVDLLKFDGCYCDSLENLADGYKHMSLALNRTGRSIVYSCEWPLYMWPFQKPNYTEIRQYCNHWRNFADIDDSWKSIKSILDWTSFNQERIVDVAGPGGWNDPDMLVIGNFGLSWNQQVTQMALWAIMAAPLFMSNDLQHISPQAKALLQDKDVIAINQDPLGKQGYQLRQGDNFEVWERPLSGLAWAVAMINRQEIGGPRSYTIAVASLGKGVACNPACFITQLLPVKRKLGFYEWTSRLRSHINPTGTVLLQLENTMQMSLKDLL

[10] = system: Mus musculus; test: Induction of human alpha galactosidase A R301Q mutant activity expressed in C57BL/6 transgenic alpha galactosidase A knockout mouse at 30 mg/kg/day, po administered for 2 weeks measured in liver relative to control; assay type: functional
[11] = system: Mus musculus; test: Induction of human alpha galactosidase A R301Q mutant activity expressed in C57BL/6 transgenic alpha galactosidase A knockout mouse at 3 mg/kg/day, po administered for 2 weeks measured in liver relative to control; assay type: functional
[12] = system: Mus musculus; test: Induction of human alpha galactosidase A R301Q mutant activity expressed in C57BL/6 transgenic alpha galactosidase A knockout mouse at 30 mg/kg/day, po administered for 2 weeks measured in spleen relative to control; assay type: functional
[13] = system: Mus musculus; test: Induction of human alpha galactosidase A R301Q mutant activity expressed in C57BL/6 transgenic alpha galactosidase A knockout mouse at 3 mg/kg/day, po administered for 2 weeks measured in spleen relative to control; assay type: functional
[14] = system: Mus musculus; test: Induction of in human alpha galactosidase A R301Q mutant activity expressed in C57BL/6 transgenic alpha galactosidase A knockout mouse at 30 mg/kg/day, po administered for 2 weeks measured in kidney relative to control; assay type: functional
[15] = system: Mus musculus; test: Induction of human alpha galactosidase A R301Q mutant activity expressed in C57BL/6 transgenic alpha galactosidase A knockout mouse at 3 mg/kg/day, po administered for 2 weeks measured in kidney relative to control; assay type: functional
[16] = system: Mus musculus; test: Induction of human alpha galactosidase A R301Q mutant activity expressed in C57BL/6 transgenic alpha galactosidase A knockout mouse at 30 mg/kg/day, po administered for 2 weeks measured in heart relative to control; assay type: functional
[17] = system: Mus musculus; test: Induction of human alpha galactosidase A R301Q mutant activity expressed in C57BL/6 transgenic alpha galactosidase A knockout mouse at 3 mg/kg/day, po administered for 2 weeks measured in heart relative to control; assay type: functional
[18] = species: Homo sapiens; test: Induction of beta-hexosaminidase S activity in fibroblasts derived from ISD patient at 100 uM after 5 days by Western blotting analysis relative to control
[19] = species: Homo sapiens; test: Induction of beta glucosidase G202R mutant activity in primary skin fibroblast derived from patient after 5 days relative to control
[20] = system: T1, Lysosomal acid glucosylceramidase (Homo sapiens), P04062 [N409S]; test: Induction of beta glucosidase N370S mutant activity in primary skin fibroblast derived from Gaucher disease patient after 5 days relative to control
[21] = molecular target: T4, Beta-galactosidase (Homo sapiens, UniProt P16278); test: Inhibition of human beta galactosidase
T4 sequence (P16278 whole entry): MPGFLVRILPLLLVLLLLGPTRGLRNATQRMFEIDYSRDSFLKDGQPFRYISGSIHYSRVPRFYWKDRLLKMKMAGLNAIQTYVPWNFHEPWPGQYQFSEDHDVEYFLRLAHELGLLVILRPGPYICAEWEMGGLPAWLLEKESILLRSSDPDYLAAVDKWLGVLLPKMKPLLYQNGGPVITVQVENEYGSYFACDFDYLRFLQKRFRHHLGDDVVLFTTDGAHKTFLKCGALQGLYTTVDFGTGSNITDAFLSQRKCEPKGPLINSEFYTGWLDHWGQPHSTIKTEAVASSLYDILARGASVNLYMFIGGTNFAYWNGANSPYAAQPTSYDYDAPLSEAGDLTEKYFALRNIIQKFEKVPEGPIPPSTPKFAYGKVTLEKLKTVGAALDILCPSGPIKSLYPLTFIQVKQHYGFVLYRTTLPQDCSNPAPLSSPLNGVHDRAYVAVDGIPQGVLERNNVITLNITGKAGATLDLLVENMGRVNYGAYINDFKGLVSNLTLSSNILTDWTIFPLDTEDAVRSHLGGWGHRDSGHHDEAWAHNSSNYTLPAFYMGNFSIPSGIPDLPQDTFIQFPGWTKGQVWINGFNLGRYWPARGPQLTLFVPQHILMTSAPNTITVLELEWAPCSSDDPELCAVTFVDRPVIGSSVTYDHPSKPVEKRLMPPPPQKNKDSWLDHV

[22] = molecular target: T5, Beta-glucosidase (Homo sapiens, UniProt Q9HCG7); test: Inhibition of beta glucosidase (unknown origin)
T5 sequence (Q9HCG7 whole entry): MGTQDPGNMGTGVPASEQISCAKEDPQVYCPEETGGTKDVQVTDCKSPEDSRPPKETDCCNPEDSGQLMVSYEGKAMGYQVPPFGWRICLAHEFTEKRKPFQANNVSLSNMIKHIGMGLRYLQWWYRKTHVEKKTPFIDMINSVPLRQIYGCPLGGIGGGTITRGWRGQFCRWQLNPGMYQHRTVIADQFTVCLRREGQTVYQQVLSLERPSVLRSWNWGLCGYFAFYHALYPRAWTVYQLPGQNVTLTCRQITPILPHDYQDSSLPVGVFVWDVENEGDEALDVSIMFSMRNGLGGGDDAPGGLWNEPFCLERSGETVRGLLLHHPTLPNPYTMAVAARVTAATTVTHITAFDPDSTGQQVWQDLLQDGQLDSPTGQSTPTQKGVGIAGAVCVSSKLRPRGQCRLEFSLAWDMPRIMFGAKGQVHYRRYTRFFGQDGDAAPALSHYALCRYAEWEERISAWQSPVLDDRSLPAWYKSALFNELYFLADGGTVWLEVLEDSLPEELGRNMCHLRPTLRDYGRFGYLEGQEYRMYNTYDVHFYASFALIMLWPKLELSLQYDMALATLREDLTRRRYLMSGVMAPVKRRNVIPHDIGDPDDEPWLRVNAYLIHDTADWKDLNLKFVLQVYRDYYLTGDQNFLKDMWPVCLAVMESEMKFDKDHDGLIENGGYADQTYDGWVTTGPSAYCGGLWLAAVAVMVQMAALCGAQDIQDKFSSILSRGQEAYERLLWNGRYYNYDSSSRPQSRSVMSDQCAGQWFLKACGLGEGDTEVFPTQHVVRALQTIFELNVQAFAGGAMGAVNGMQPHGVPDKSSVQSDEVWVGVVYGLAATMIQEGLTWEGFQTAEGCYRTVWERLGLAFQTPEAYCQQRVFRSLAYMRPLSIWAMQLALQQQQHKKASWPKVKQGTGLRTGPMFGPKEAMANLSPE

[23] = species: Homo sapiens; test: Induction of beta hexosaminidase activity in patient derived cell-line at 50 uM relative to control
[24] = Non competitive inhibition of beta hexosaminidase (unknown origin); set-up: species or system Homo sapiens
[25] = system: Mus musculus; test: Induction of beta glucosidase L444P mutant in mouse brain administered with drinking water measured after 4 weeks relative to control; assay type: functional

Lysosomal acid glucosylceramidase (Homo sapiens), sequence (P04062 whole entry, looked up): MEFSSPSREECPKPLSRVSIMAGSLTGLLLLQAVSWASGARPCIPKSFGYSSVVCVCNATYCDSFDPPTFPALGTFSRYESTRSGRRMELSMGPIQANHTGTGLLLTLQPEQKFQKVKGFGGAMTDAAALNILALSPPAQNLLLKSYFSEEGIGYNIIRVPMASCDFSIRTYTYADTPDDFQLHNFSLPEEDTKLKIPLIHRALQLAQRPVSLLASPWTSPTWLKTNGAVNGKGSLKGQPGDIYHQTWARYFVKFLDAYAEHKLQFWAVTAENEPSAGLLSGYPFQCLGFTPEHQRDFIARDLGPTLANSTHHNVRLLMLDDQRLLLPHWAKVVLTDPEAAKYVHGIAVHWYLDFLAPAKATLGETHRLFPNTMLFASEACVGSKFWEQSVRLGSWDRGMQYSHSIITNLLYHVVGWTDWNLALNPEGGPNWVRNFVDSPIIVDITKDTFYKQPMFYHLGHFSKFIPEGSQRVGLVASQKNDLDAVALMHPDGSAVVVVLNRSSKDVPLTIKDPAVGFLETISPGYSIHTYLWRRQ

fold change (FC) [2]: 3
Compound: O=C1c2cccc3cccc(c23)C(=O)N1CCNCCN1C(=O)c2cccc3cccc(c23)C1=O

fold change (FC) [4]: 1.9
Compound: OC[C@@H]1[C@@H](O)C(O)[C@@H](O)CN1CCCn1cc(COc2ccccc2)nn1 (single isomer, unassigned)

fold change (FC) [5]: 1.6
Compound: CN(C)c1cccc2c(S(=O)(=O)NCCCCCCN(CCCCCCNS(=O)(=O)c3cccc4c(N(C)C)cccc34)C(=O)CCCCCCN3C[C@H](O)[C@@H](O)[C@H](O)[C@H]3CO)cccc12

IC50 [6]: 10 µM
Compound: CCCCCCCCCCCCCCCC(=O)NC[C@H](NC(=O)CNC(C)=O)C(=O)N[C@H](C(=O)N[C@@H](CCCCN)C(=O)N[C@H](C(=O)N[C@@H](CCCCN)C(=O)N[C@@H](CCCCN)C(=O)O)[C@@H](C)CC)C(C)C (Ac-G[Dap](Palmitoyl)VKIKK-OH)

fold change (FC) [19]: 2.7 | fold change (FC) [20]: 1.4
Compound: O=C(CCCCCN1C[C@H](O)[C@@H](O)[C@H](O)[C@H]1CO)NC12CC3CC(CC(C3)C1)C2

The remaining lines, values behind:

Compound: CCCCCCCCC/N=C1/N[C@H]2[C@H](O)[C@@H](O)[C@H](O)[C@@H](O)[C@H]2O1 (racemic)
fold change (FC) [1]: 1.7

Compound: O=C1c2ccccc2/C(=N/O)C1[N+](=O)[O-] (stereo not given)
fold change (FC) [3]: 2

Compound: CCCCCCO[C@@H]1CNC[C@H](O)[C@H]1O
fold change (FC) [7]: 1.5 | fold change (FC) [8]: > 100

Compound: OC[C@H]1NC[C@H](O)[C@@H](O)[C@H]1O
fold change (FC) [9]: 14 | fold change (FC) [10]: 7.1 | fold change (FC) [11]: 3.1 | fold change (FC) [12]: 1.8 | fold change (FC) [13]: 1.7 | fold change (FC) [14]: 28 | fold change (FC) [15]: 2 | fold change (FC) [16]: 18 | fold change (FC) [17]: 4

Compound: Cc1[nH]cc2c(=O)n(Cc3ccc(Cl)cc3)ncc12
fold change (FC) [18]: 2.5

Compound: CCCCCCCCN[C@@H]1C=C(CO)[C@H](O)[C@H](O)[C@H]1O
Ki [21]: 0.3 µM

Compound: O[C@H]1[C@H](O)[C@@H](O)CN2CC[C@H](O)[C@H]12 [CASTANOSPERMINE]
IC50 [22]: 19 µM

Compound: CC(=O)N[C@H]1CN(Cc2ccccc2)[C@@H](CO)[C@@H]1O
fold change (FC) [23]: 2 | Ki [24]: 2.8 µM

Compound: OC[C@H]1CNC[C@@H](O)[C@@H]1O [AFEGOSTAT]
fold change (FC) [25]: 2
